Laboratory results published in the supplement of paper PMC8092582.
Counter-ions that a name gives are not always drawn. ± gives the standard deviation of the averaged measurements.

Tested on: HeLa
Experiment: cell viability (CellTiter-Glo) relative to median of lowest-dilution wells of all drugs (fraction); higher = more viable cells
Method: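 HeLa control and CRISPR DDX11 knockout cells were seeded in 384-well plates and incubated for 72 h with each of 64 […] drugs at six concentrations. Viability was read with CellTiter-Glo and normalised to the median of the lowest (6th) dilution wells of all drugs. Two biological replicates (BR1, BR2) are averaged; the concentration unit is not stated.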

[1] = drug concentration (unit not stated): 0.01, genotype: DDX11 knockout
[2] = drug concentration (unit not stated): 0.01, genotype: control (DDX11 wild type)
[3] = drug concentration (unit not stated): 0.04, genotype: DDX11 knockout
[4] = drug concentration (unit not stated): 0.04, genotype: control (DDX11 wild type)
[5] = drug concentration (unit not stated): 0.12, genotype: DDX11 knockout
[6] = drug concentration (unit not stated): 0.12, genotype: control (DDX11 wild type)
[7] = drug concentration (unit not stated): 0.37, genotype: DDX11 knockout
[8] = drug concentration (unit not stated): 0.37, genotype: control (DDX11 wild type)
[9] = drug concentration (unit not stated): 1.11, genotype: DDX11 knockout
[10] = drug concentration (unit not stated): 1.11, genotype: control (DDX11 wild type)
[11] = drug concentration (unit not stated): 3.33, genotype: DDX11 knockout
[12] = drug concentration (unit not stated): 3.33, genotype: control (DDX11 wild type)
[13] = drug concentration (unit not stated): 10, genotype: DDX11 knockout
[14] = drug concentration (unit not stated): 10, genotype: control (DDX11 wild type)

SMILES | cell viability [1] | cell viability [2] | cell viability [3] | cell viability [4] | cell viability [5] | cell viability [6] | cell viability [7] | cell viability [8] | cell viability [9] | cell viability [10] | cell viability [11] | cell viability [12] | cell viability [13] | cell viability [14] | cell viability (drug concentration (unit not stated): 30, genotype: DDX11 knockout) | cell viability (drug concentration (unit not stated): 30, genotype: control (DDX11 wild type))
O=C(CCCCCCC(=O)Nc1ccccc1)NO [Vorinostat (SAHA)] | 1.01 ± 0.075 | 1.03 ± 0.026 | 0.974 ± 0.013 | 0.9673 ± 0.0094 | 0.995 ± 0.052 | 0.971 ± 0.031 | 0.771 ± 0.18 | 0.825 ± 0.27 | 0.317 ± 0.41 | 0.44 ± 0.58 | – | – | – | – | – | –
O=C1c2c(O)ccc(O)c2C(=O)c2c(NCCNCCO)ccc(NCCNCCO)c21 [Mitoxantrone Hydrochloride] | 0.834 ± 0.17 | 0.952 ± 0.011 | 0.556 ± 0.33 | 0.88 ± 0.18 | 0.292 ± 0.31 | 0.858 ± 0.57 | 0.124 ± 0.13 | 0.583 ± 0.73 | 0.0246 ± 0.0088 | 0.312 ± 0.42 | – | – | – | – | – | –
C[C@@H]1COCCN1c1cc(-c2ccnn2C)c2ccnc(-c3ccn[nH]3)c2n1 | – | – | 1.03 ± 0.056 | 1.022 ± 0.0024 | 0.981 ± 0.083 | 1.02 ± 0.077 | 0.864 ± 0.021 | 0.959 ± 0.29 | 0.517 ± 0.036 | 0.696 ± 0.19 | 0.313 ± 0.045 | 0.398 ± 0.16 | 0.19 ± 0.086 | 0.227 ± 0.096 | – | –
O=C(Nc1c[nH]nc1-c1nc2ccc(CN3CCOCC3)cc2[nH]1)NC1CC1 [AT9283] | 1.03 ± 0.023 | 0.988 ± 0.066 | 0.94 ± 0.015 | 0.939 ± 0.053 | 1.07 ± 0.076 | 1 ± 0.042 | 1.04 ± 0.046 | 1.07 ± 0.069 | 0.769 ± 0.4 | 0.799 ± 0.063 | 0.469 ± 0.41 | 0.504 ± 0.12 | – | – | – | –
O=c1[nH]cc(F)c(=O)[nH]1 [Adrucil (Fluorouracil)] | – | – | 1 ± 0.034 | 0.976 ± 0.016 | 1.03 ± 0.046 | 1 ± 0.031 | 1.06 ± 0.046 | 1.03 ± 0.032 | 1.01 ± 0.073 | 1.05 ± 0.23 | 0.928 ± 0.26 | 1.02 ± 0.45 | 0.817 ± 0.14 | 0.945 ± 0.37 | – | –
CO[C@H]1C[C@@H]2CC[C@@H](C)[C@@](O)(O2)C(=O)C(=O)N2CCCC[C@H]2C(=O)O[C@H]([C@H](C)C[C@@H]2CC[C@@H](O)[C@H](OC)C2)CC(=O)[C@H](C)/C=C(\C)[C@@H](O)[C@@H](OC)C(=O)[C@H](C)C[C@H](C)/C=C/C=C/C=C/1C [Rapamycin (Sirolimus)] | 0.764 ± 0.11 | 0.916 ± 0.33 | 0.755 ± 0.13 | 0.883 ± 0.33 | 0.786 ± 0.18 | 0.887 ± 0.33 | 0.706 ± 0.11 | 0.903 ± 0.33 | 0.718 ± 0.11 | 0.878 ± 0.35 | 0.67 ± 0.12 | 0.84 ± 0.35 | – | – | – | –
CC1(C)CCC(c2ccc(Cl)cc2)=C(CN2CCN(c3ccc(C(=O)NS(=O)(=O)c4ccc(N[C@H](CCN5CCOCC5)CSc5ccccc5)c(S(=O)(=O)C(F)(F)F)c4)cc3)CC2)C1 [ABT-263 (Navitoclax)] | – | – | 1.04 ± 0.045 | 0.983 ± 0.041 | 1 ± 0.021 | 1.02 ± 0.076 | 1.04 ± 0.014 | 1.022 ± 0.0018 | 0.976 ± 0.043 | 1.0084 ± 0.00083 | 1.02 ± 0.048 | 1.06 ± 0.058 | 0.841 ± 0.14 | 0.894 ± 0.22 | – | –
CC[C@@]1(O)C(=O)OCc2c1cc1n(c2=O)Cc2cc3c(CN(C)C)c(O)ccc3nc2-1 [Topotecan HCl] | 0.74 ± 0.27 | 0.86 ± 0.14 | 0.519 ± 0.38 | 0.709 ± 0.57 | 0.206 ± 0.19 | 0.228 ± 0.21 | 0.0639 ± 0.033 | 0.0738 ± 0.043 | 0.0268 ± 0.0046 | 0.0567 ± 0.046 | 0.0244 ± 0.0069 | 0.0265 ± 0.01 | – | – | – | –
CC[C@]1(O)C[C@@H]2CN(CCc3c([nH]c4ccccc34)[C@@](C(=O)OC)(c3cc4c(cc3OC)N(C)[C@H]3[C@@](O)(C(=O)OC)[C@H](OC(C)=O)[C@]5(CC)C=CCN6CC[C@]43[C@@H]65)C2)C1 [Vinblastine] | 0.751 ± 0.37 | 0.802 ± 0.21 | 0.538 ± 0.36 | 0.799 ± 0.44 | 0.374 ± 0.092 | 0.441 ± 0.2 | 0.392 ± 0.0058 | 0.31 ± 0.042 | 0.3923 ± 0.00082 | 0.355 ± 0.12 | 0.401 ± 0.042 | 0.359 ± 0.089 | – | – | – | –
CC[C@H](CO)Nc1nc(NCc2ccccc2)c2ncn(C(C)C)c2n1 [Seliciclib (Roscovitine)] | – | – | – | – | 0.992 ± 0.018 | 0.946 ± 0.036 | 1.008 ± 0.0031 | 0.98 ± 0.018 | 1.04 ± 0.021 | 1 ± 0.033 | 1 ± 0.012 | 0.994 ± 0.038 | 1.01 ± 0.051 | 1.028 ± 0.008 | 0.577 ± 0.26 | 0.893 ± 0.38
